Laboratory results reported in patent US6355799B1, “Substituted benzene compounds, process for their preparation, and herbicidal and defoliant compositions containing them” (ISK Americas Incorporated, priority 1997, dated 2002).

Assays:
Type in all cases: in vivo
[1] = tested on: redroot pigweed (Amaranthus retroflexus, AMARE); assay: Pre-emerge test, greenhouse herbicide activity screening; details: pre-emerge, phytotoxicity rating 0-100 at 14 days after application
In short: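 Rating: 0–100 visual injury, 14 DAA. Application: acetone, 187 l/ha, 15–1000 g ai/ha, flat-fan track sprayer with nozzle 40–45 cm above soil or canopy. Post-emerge runs used 0.25% v/v surfactant on 2–3 leaf plants.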

[2] = tested on: barnyardgrass (Echinochloa crus-galli, ECHCG); assay: as above; details: pre-emerge, phytotoxicity rating 0-100 at 14 days after application
Description: (§1) A standard greenhouse herbicide activity screening system was used to evaluate the herbicidal efficacy and crop safety of these test compounds. Seven broadleaf weed species including redroot pigweed (Amaranthus retroflexus, AMARE, velvetleaf (Abutilon theophrasti, ABUTH), sicklepod (Cassia obtusifolia, CASOB), ivyleaf morningglory (Ipomoea hederacea, IPOHE), lambsquarters (Chenopodium album, CHEAL), common ragweed (Ambrosia artemisizfolia L., AMBEL), and cocklebur (Xanthium strumarium, XANST) were used as test species. Four grass weed species including green foxtail (Setaria viridis, SETVI), barnyardgrass (Echinochloa crus-galli, ECHCG), johnsongrass (Sorghum halepense, SORHA), and large crabgrass (Digitaria sanguinalis, DIGSA) were also used. In addition, three crop species, field corn (Zea mays L., var. Dekalb 535, CORN), soybean (Glycine max L., var. Pella 86, SOY), and is upland rice (Oryza sp., var. Tebonnet, RICE) were included.
(§2) All plants were grown in 10 cm square plastic pots which were filled with a sandy loam soil mix. For pre-emerge tests, seeds were planted one day prior to application of the test compounds. For post-emerge tests, seeds were planted 8-21 days prior to the test to allow emergence and good foliage development prior to application of the test substances. At the time of the post-emerge application, plants of all species were usually at the 2-3 leaf stage of development.
(§3) All test compounds Were dissolved in acetone and applied to the test units in a volume of 187 l /ha. Test materials were applied at rates ranging from 15 g ai/ha to 1000 g ai/ha using a track sprayer equipped with a TJ8001E even flow flat fan spray nozzle. Plants were arranged on a shelf so that the top of the canopy (post-emerge) or top of the soil surface (pre-emerge) was 40-45 cm below the nozzle. Pressurized air was used to force the test solution through the nozzle as it was mechanically advanced (via electrically driven chain drive) over the top of all test plants/pots. This application simulates a typical commercial field herbicide application.
(§4) In the post-emerge test, a commercial non-ionic surfactant was also included (0.25% v/v) to enhance wetting of the leaf surfaces of target plants. Immediately after application, test units of the pre-emerge applications were watered at the soil surface to incorporate the test materials. Subsequently, these test units were bottom-watered. Post-emerge test units were always bottom-watered.
(§5) At 14 days after application of the test materials, phytotoxicity ratings were recorded. A rating scale of 0-100 was used as previously described in Research Methods in Weed Science, 2nd edition, B. Truelove, Ed., Southern Weed Science Society, Auburn University, Auburn, Ala. 1977. Briefly, “0” corresponds to no damage and “100” corresponds to complete death of all plants in the test unit. This scale was used both to determine efficacy against weed species and damage to crop species. Herbicide activity data for various compounds of this invention, which are shown by compound No. in Tables 1-8, are shown in Tables 11 and 12.

[3] = tested on: green foxtail (Setaria viridis, SETVI); assay: as above; details: pre-emerge, phytotoxicity rating 0-100 at 14 days after application
Description: as §1, §2, §3, §4, §5

[4] = tested on: ivyleaf morningglory (Ipomoea hederacea, IPOHE); assay: as above; details: pre-emerge, phytotoxicity rating 0-100 at 14 days after application
Description: as §1, §2, §3, §4, §5

[5] = tested on: lambsquarters (Chenopodium album, CHEAL); assay: as above; details: pre-emerge, phytotoxicity rating 0-100 at 14 days after application
Description: as §1, §2, §3, §4, §5

[6] = tested on: large crabgrass (Digitaria sanguinalis, DIGSA); assay: as above; details: pre-emerge, phytotoxicity rating 0-100 at 14 days after application
Description: as §1, §2, §3, §4, §5

[7] = tested on: sicklepod (Cassia obtusifolia, CASOB); assay: as above; details: pre-emerge, phytotoxicity rating 0-100 at 14 days after application
Description: as §1, §2, §3, §4, §5

[8] = tested on: velvetleaf (Abutilon theophrasti, ABUTH); assay: as above; details: pre-emerge, phytotoxicity rating 0-100 at 14 days after application
Description: as §1, §2, §3, §4, §5

[9] = tested on: field corn (Zea mays L., var. Dekalb 535, CORN); assay: Pre-emerge test, crop safety; details: crop damage, pre-emerge, phytotoxicity rating 0-100 at 14 days after application
Description: as §1, §2, §3, §4, §5

[10] = tested on: upland rice (Oryza sp., var. Tebonnet, RICE); assay: Pre-emerge test, crop safety; details: crop damage, pre-emerge, phytotoxicity rating 0-100 at 14 days after application
Description: as §1, §2, §3, §4, §5

[11] = tested on: barnyardgrass (Echinochloa crus-galli, ECHCG); assay: Post-emerge test, greenhouse herbicide activity screening; details: post-emerge, phytotoxicity rating 0-100 at 14 days after application
Description: as §1, §2, §3, §4, §5

[12] = tested on: green foxtail (Setaria viridis, SETVI); assay: as above; details: post-emerge, phytotoxicity rating 0-100 at 14 days after application
Description: as §1, §2, §3, §4, §5

[13] = tested on: ivyleaf morningglory (Ipomoea hederacea, IPOHE); assay: as above; details: post-emerge, phytotoxicity rating 0-100 at 14 days after application
Description: as §1, §2, §3, §4, §5

[14] = tested on: lambsquarters (Chenopodium album, CHEAL); assay: as above; details: post-emerge, phytotoxicity rating 0-100 at 14 days after application
Description: as §1, §2, §3, §4, §5

[15] = tested on: large crabgrass (Digitaria sanguinalis, DIGSA); assay: as above; details: post-emerge, phytotoxicity rating 0-100 at 14 days after application
Description: as §1, §2, §3, §4, §5

[16] = tested on: redroot pigweed (Amaranthus retroflexus, AMARE); assay: as above; details: post-emerge, phytotoxicity rating 0-100 at 14 days after application
Description: as §1, §2, §3, §4, §5

[17] = tested on: sicklepod (Cassia obtusifolia, CASOB); assay: as above; details: post-emerge, phytotoxicity rating 0-100 at 14 days after application
Description: as §1, §2, §3, §4, §5

[18] = tested on: velvetleaf (Abutilon theophrasti, ABUTH); assay: as above; details: post-emerge, phytotoxicity rating 0-100 at 14 days after application
Description: as §1, §2, §3, §4, §5

[19] = tested on: field corn (Zea mays L., var. Dekalb 535, CORN); assay: Post-emerge test, crop safety; details: post-emerge, crop damage rating 0-100 at 14 days after application
Description: as §1, §2, §3, §4, §5

[20] = tested on: upland rice (Oryza sp., var. Tebonnet, RICE); assay: Post-emerge test, crop safety; details: post-emerge, crop damage rating 0-100 at 14 days after application
Description: as §1, §2, §3, §4, §5

Cc1c(Cl)cc(F)c(-n2c(=O)cc(C(F)(F)F)n(C)c2=O)c1NC(=O)OCc1ccco1 [4-70]
Pre-emerge Herbicidal Activity AMARE ([1]; rate 63 g ai/ha): 100 | Pre-emerge Herbicidal Activity AMARE ([1]; rate 250 g ai/ha): 100 | Pre-emerge Herbicidal Activity ECHCG ([2]; rate 63 g ai/ha): 40 | Pre-emerge Herbicidal Activity ECHCG ([2]; rate 250 g ai/ha): 95 | Pre-emerge Herbicidal Activity SETVI ([3]; rate 63 g ai/ha): 60 | Pre-emerge Herbicidal Activity SETVI ([3]; rate 250 g ai/ha): 100 | Pre-emerge Herbicidal Activity IPOHE ([4]; rate 63 g ai/ha): 100 | Pre-emerge Herbicidal Activity IPOHE ([4]; rate 250 g ai/ha): 100 | Pre-emerge Herbicidal Activity CHEAL ([5]; rate 63 g ai/ha): 100 | Pre-emerge Herbicidal Activity CHEAL ([5]; rate 250 g ai/ha): 100 | Pre-emerge Herbicidal Activity DIGSA ([6]; rate 63 g ai/ha): 60 | Pre-emerge Herbicidal Activity DIGSA ([6]; rate 250 g ai/ha): 100 | Pre-emerge Herbicidal Activity CASOB ([7]; rate 63 g ai/ha): 50 | Pre-emerge Herbicidal Activity CASOB ([7]; rate 250 g ai/ha): 80 | Pre-emerge Herbicidal Activity ABUTH ([8]; rate 63 g ai/ha): 100 | Pre-emerge Herbicidal Activity ABUTH ([8]; rate 250 g ai/ha): 100 | Pre-emerge Herbicidal Activity CORN ([9]; rate 63 g ai/ha): 90 | Pre-emerge Herbicidal Activity CORN ([9]; rate 250 g ai/ha): 95 | Pre-emerge Herbicidal Activity RICE ([10]; rate 63 g ai/ha): 40 | Pre-emerge Herbicidal Activity RICE ([10]; rate 250 g ai/ha): 70 | Post-emerge Herbicidal Activity ECHCG ([11]; 63 g ai/ha): 40 | Post-emerge Herbicidal Activity ECHCG ([11]; 250 g ai/ha): 80 | Post-emerge Herbicidal Activity SETVI ([12]; 63 g ai/ha): 60 | Post-emerge Herbicidal Activity SETVI ([12]; 250 g ai/ha): 95 | Post-emerge Herbicidal Activity IPOHE ([13]; 63 g ai/ha): 100 | Post-emerge Herbicidal Activity IPOHE ([13]; 250 g ai/ha): 100 | Post-emerge Herbicidal Activity CHEAL ([14]; 63 g ai/ha): 90 | Post-emerge Herbicidal Activity CHEAL ([14]; 250 g ai/ha): 100 | Post-emerge Herbicidal Activity DIGSA ([15]; 63 g ai/ha): 30 | Post-emerge Herbicidal Activity DIGSA ([15]; 250 g ai/ha): 70 | Post-emerge Herbicidal Activity AMARE ([16]; 63 g ai/ha): 90 | Post-emerge Herbicidal Activity AMARE ([16]; 250 g ai/ha): 100 | Post-emerge Herbicidal Activity CASOB ([17]; 63 g ai/ha): 60 | Post-emerge Herbicidal Activity CASOB ([17]; 250 g ai/ha): 90 | Post-emerge Herbicidal Activity ABUTH ([18]; 63 g ai/ha): 100 | Post-emerge Herbicidal Activity ABUTH ([18]; 250 g ai/ha): 100 | Post-emerge Herbicidal Activity CORN ([19]; 63 g ai/ha): 40 | Post-emerge Herbicidal Activity CORN ([19]; 250 g ai/ha): 90 | Post-emerge Herbicidal Activity RICE ([20]; 63 g ai/ha): 30 | Post-emerge Herbicidal Activity RICE ([20]; 250 g ai/ha): 70
